Reference: ChEMBL document CHEMBL5584315, “Evaluation of Phenazine Derivatives from the Lichen-Associated Streptomyces flavidovirens as Potent Antineuroinflammatory Agents In Vitro and In Vivo” (J Nat Prod, 2024)
Active and inactive are the calls of the source. The rule behind the calls is not given here.

Key:
[1] = Cytotoxicity against mouse BV-2 cells assessed as cell viability at 40 uM measured after 24 hrs by MTT assay relative to control; assay type: toxicity, cell-based; conditions: read-out: Activity
BV-2 = test: Antineuroinflammatory activity in LPS induced mouse BV-2 cells assessed as inhibition of NO production pretreated for 3 hrs followed by LPS addition and measured after 21 hrs by griess reagent based assay; assay type: functional, cell-based
Danio rerio = species: Danio rerio; test: Inhibition of LPS-induced ROS stress in Zebrafish embryo model assessed as reduction in ROS expression by measuring green fluorescence intensity at 30 uM pretreated for 2 hrs followed by LPS stimulation and measured after 12 hrs by H2DCF-DA staining based fluorescence microscopy analysis; assay type: functional, organism-based; conditions: time 14.0 hrs

SMILES: COC(=O)c1cccc2nc3c([C@@H](C)O)cccc3nc12
- viability at 24 h, 40 µM [1]: > 98%
- IC50 (BV-2): 8.5 µM

SMILES: CC(=O)OC[C@H]1O[C@@H](n2cnc3c(N)ncnc32)[C@H](O)[C@@H]1O
- viability at 24 h, 40 µM [1]: > 98%
- IC50 (BV-2): > 20 µM

SMILES: COC(=O)c1cccc2nc3ccccc3nc12
- viability at 24 h, 40 µM [1]: > 98%
- IC50 (BV-2): 8.6 µM

SMILES: COC(=O)C[C@@H](O)c1cccc2nc3c(C(=O)OC)cccc3nc12
- viability at 24 h, 40 µM [1]: > 98%
- IC50 (BV-2): 8.4 µM

SMILES: CC(=O)NCCC(=O)Nc1cccs1
- viability at 24 h, 40 µM [1]: > 98%
- IC50 (BV-2): 17.4 µM

SMILES: CC(=O)NCCc1c[nH]c2ccccc12 [NB-ACETYLTRYPTAMINE]
- viability at 24 h, 40 µM [1]: > 98%
- IC50 (BV-2): > 20 µM

SMILES: CC(C)C[C@@H]1NC(=O)[C@H](Cc2c[nH]c3ccccc23)NC1=O
- viability at 24 h, 40 µM [1]: > 98%
- IC50 (BV-2): > 20 µM

SMILES: CSC(=N)N
- IC50 (BV-2): 7.5 µM

SMILES: O=C1CCCCN1Cc1ccco1
- viability at 24 h, 40 µM [1]: > 98%
- IC50 (BV-2): > 20 µM

SMILES: COC(=O)c1cccc2nc3c([C@H](O)[C@@H](C)C(=O)OC)cccc3nc12
- viability at 24 h, 40 µM [1]: > 98%
- IC50 (BV-2): 8.3 µM

SMILES: C[C@@H]1C[C@H]2[C@@H]3CCC4=CC(=O)C=C[C@]4(C)[C@@]3(F)[C@@H](O)C[C@]2(C)[C@@]1(O)C(=O)CO
- inhibition (Danio rerio): inactive
